# Measured values as given in PubChem BioAssay (NCI).
#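 Results reflect a 48-hour exposure of cells in 96-well plates to compound at five concentrations. TGI marks complete inhibition of growth.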
# Assays:
# Experiment in all cases: DTP human tumour cell line panel, 48 h
# [1] = system: SNB-19 CNS
# [2] = system: HCT-15 colon
# [3] = system: NCI/ADR-RES ovarian
# [4] = system: HS 578T breast
# [5] = system: MDA-N
# [6] = system: SK-MEL-2 melanoma
# [7] = system: HL-60(TB) leukemia
# [8] = system: UACC-257 melanoma
# [9] = system: PC-3 prostate
# [10] = system: NCI-H23 lung
# [11] = system: DU-145 prostate
# [12] = system: T-47D breast
# [13] = system: COLO 205 colon
# [14] = system: A498 renal
# [15] = system: SK-MEL-28 melanoma
# [16] = system: HT29 colon
# [17] = system: TK-10 renal
# [18] = system: MOLT-4 leukemia
# [19] = system: IGROV1 ovarian
# [20] = system: 786-0 renal
# [21] = system: SF-295 CNS
# [22] = system: OVCAR-8 ovarian
# [23] = system: LOX IMVI melanoma
# [24] = system: MCF7 breast
# [25] = system: BT-549 breast
# [26] = system: RPMI-8226 leukemia
# [27] = system: OVCAR-4 ovarian
# [28] = system: SF-268 CNS
# [29] = system: SK-MEL-5 melanoma
# [30] = system: OVCAR-3 ovarian
# [31] = system: ACHN renal
# [32] = system: UO-31 renal
# [33] = system: SW-620 colon
# [34] = system: CCRF-CEM leukemia
# [35] = system: NCI-H522 lung
# [36] = system: CAKI-1 renal
# [37] = system: HCC-2998 colon
# [38] = system: HOP-62 NSCLC
# [39] = system: K-562 leukemia
# [40] = system: SN12C renal
# [41] = system: SF-539 CNS
# [42] = system: MDA-MB-231 breast
# [43] = system: UACC-62 melanoma
# [44] = system: NCI-H460 lung
# [45] = system: MDA-MB-435
# [46] = system: EKVX NSCLC
# [47] = system: HCT-116 colon
# [48] = system: U251 CNS
# [49] = system: SR leukemia
# [50] = system: HOP-92 NSCLC
# [51] = system: OVCAR-5 ovarian
# [52] = system: SK-OV-3 ovarian
# [53] = system: MALME-3M melanoma
# [54] = system: A549 NSCLC
# [55] = system: KM12 colon
# [56] = system: M14 melanoma
# [57] = system: SNB-75 CNS
# [58] = system: RXF 393 renal
# [59] = system: NCI-H226 lung
smiles,measurement,setting,value
O=C1CSC(c2cccc(Cl)c2)N1c1ccc(-n2c(-c3ccccc3)nc3ccccc3c2=O)cc1 (stereo not drawn),TGI,[1],> 100 µM
same,TGI,[2],> 100 µM
same,TGI,[3],> 100 µM
same,TGI,[4],> 100 µM
same,TGI,[5],> 100 µM
same,TGI,[6],> 100 µM
same,TGI,[7],> 100 µM
same,TGI,[8],> 100 µM
same,TGI,[9],> 100 µM
same,TGI,[10],> 100 µM
same,TGI,[11],> 100 µM
same,TGI,[12],> 100 µM
same,TGI,[13],> 100 µM
same,TGI,[14],> 100 µM
same,TGI,[15],> 100 µM
same,TGI,[16],> 100 µM
same,TGI,[17],> 100 µM
same,TGI,[18],> 100 µM
same,TGI,[19],> 100 µM
same,TGI,[20],> 100 µM
same,TGI,[21],> 100 µM
same,TGI,[22],> 100 µM
same,TGI,[23],> 100 µM
same,TGI,[24],> 100 µM
same,TGI,[25],> 100 µM
same,TGI,[26],> 100 µM
same,TGI,[27],62.9 µM
same,TGI,[28],> 100 µM
same,TGI,[29],> 100 µM
same,TGI,[30],> 100 µM
same,TGI,[31],> 100 µM
same,TGI,[32],24.7 µM
same,TGI,[33],> 100 µM
same,TGI,[34],> 100 µM
same,TGI,[35],> 100 µM
same,TGI,[36],> 100 µM
same,TGI,[37],> 100 µM
same,TGI,[38],> 100 µM
same,TGI,[39],> 100 µM
same,TGI,[40],> 100 µM
same,TGI,[41],> 100 µM
same,TGI,[42],> 100 µM
same,TGI,[43],> 100 µM
same,TGI,[44],> 100 µM
same,TGI,[45],> 100 µM
same,TGI,[46],> 100 µM
same,TGI,[47],> 100 µM
same,TGI,[48],> 100 µM
same,TGI,[49],> 100 µM
same,TGI,[50],> 100 µM
same,TGI,[51],> 100 µM
same,TGI,[52],> 100 µM
same,TGI,[53],> 100 µM
same,TGI,[54],> 100 µM
same,TGI,[55],> 100 µM
O=C(O)CNCP(=O)(O)O,TGI,[1],> 100 µM
same,TGI,[2],> 100 µM
same,TGI,[3],> 100 µM
same,TGI,[4],> 100 µM
same,TGI,[5],> 100 µM
same,TGI,[6],> 100 µM
same,TGI,[7],> 100 µM
same,TGI,[8],> 100 µM
same,TGI,[9],> 100 µM
same,TGI,[10],> 100 µM
same,TGI,[11],> 100 µM
same,TGI,[12],> 100 µM
same,TGI,[13],> 100 µM
same,TGI,[14],> 100 µM
same,TGI,[15],> 100 µM
same,TGI,[16],> 100 µM
same,TGI,[17],> 100 µM
same,TGI,[18],> 100 µM
same,TGI,[19],> 100 µM
same,TGI,[20],> 100 µM
same,TGI,[21],> 100 µM
same,TGI,[22],> 100 µM
same,TGI,[23],> 100 µM
same,TGI,[24],> 100 µM
same,TGI,[25],> 100 µM
same,TGI,[26],> 100 µM
same,TGI,[27],> 100 µM
same,TGI,[28],> 100 µM
same,TGI,[29],> 100 µM
same,TGI,[30],> 100 µM
same,TGI,[31],> 100 µM
same,TGI,[33],> 100 µM
same,TGI,[34],> 100 µM
same,TGI,[35],> 100 µM
same,TGI,[36],> 100 µM
same,TGI,[56],> 100 µM
same,TGI,[38],> 100 µM
same,TGI,[39],> 100 µM
same,TGI,[57],> 100 µM
same,TGI,[40],> 100 µM
same,TGI,[41],> 100 µM
same,TGI,[42],> 100 µM
same,TGI,[43],> 100 µM
same,TGI,[44],> 100 µM
same,TGI,[45],> 100 µM
same,TGI,[46],> 100 µM
same,TGI,[47],> 100 µM
same,TGI,[58],> 100 µM
same,TGI,[48],> 100 µM
same,TGI,[49],> 100 µM
same,TGI,[50],> 100 µM
same,TGI,[51],> 100 µM
same,TGI,[52],> 100 µM
same,TGI,[59],> 100 µM
same,TGI,[53],> 100 µM
same,TGI,[54],> 100 µM
same,TGI,[55],> 100 µM
Cc1n[nH]c(=S)n1/N=C/c1ccc(-c2ccc(Cl)cc2)o1,TGI,[2],> 100 µM
same,TGI,[3],> 100 µM
same,TGI,[4],> 100 µM
same,TGI,[5],> 100 µM
same,TGI,[6],> 100 µM
same,TGI,[7],> 100 µM
same,TGI,[8],> 100 µM
same,TGI,[9],> 100 µM
same,TGI,[10],> 100 µM
same,TGI,[11],> 100 µM
same,TGI,[12],> 100 µM
same,TGI,[14],> 100 µM
same,TGI,[15],> 100 µM
same,TGI,[16],> 100 µM
same,TGI,[17],> 100 µM
same,TGI,[18],> 100 µM
same,TGI,[19],> 100 µM
same,TGI,[20],> 100 µM
same,TGI,[21],> 100 µM
same,TGI,[22],> 100 µM
same,TGI,[23],> 100 µM
same,TGI,[24],> 100 µM
same,TGI,[25],> 100 µM
same,TGI,[26],> 100 µM
same,TGI,[27],> 100 µM
same,TGI,[28],> 100 µM
same,TGI,[29],> 100 µM
same,TGI,[30],> 100 µM
same,TGI,[31],> 100 µM
same,TGI,[32],> 100 µM
same,TGI,[33],> 100 µM
same,TGI,[35],> 100 µM
same,TGI,[36],> 100 µM
same,TGI,[56],> 100 µM
same,TGI,[38],> 100 µM
same,TGI,[39],> 100 µM
same,TGI,[57],82.9 µM
same,TGI,[41],> 100 µM
same,TGI,[42],> 100 µM
same,TGI,[44],> 100 µM
same,TGI,[45],> 100 µM
same,TGI,[46],> 100 µM
same,TGI,[47],> 100 µM
same,TGI,[58],> 100 µM
same,TGI,[48],> 100 µM
same,TGI,[49],> 100 µM
same,TGI,[50],> 100 µM
same,TGI,[51],> 100 µM
same,TGI,[59],> 100 µM
same,TGI,[54],> 100 µM
same,TGI,[55],> 100 µM
O=C1NC(=O)C(c2c[nH]c3cc(Br)ccc23)=C1c1cnc[nH]1,TGI,[1],> 100 µM
same,TGI,[2],> 100 µM
same,TGI,[3],> 100 µM
same,TGI,[4],> 100 µM
same,TGI,[5],> 100 µM
same,TGI,[6],79.3 µM
same,TGI,[7],93.3 µM
same,TGI,[8],44.9 µM
same,TGI,[9],> 100 µM
same,TGI,[11],> 100 µM
same,TGI,[12],> 100 µM
same,TGI,[13],63.2 µM
same,TGI,[14],52.2 µM
same,TGI,[15],> 100 µM
same,TGI,[16],> 100 µM
same,TGI,[17],> 100 µM
same,TGI,[18],> 100 µM
same,TGI,[19],> 100 µM
same,TGI,[20],> 100 µM
same,TGI,[21],> 100 µM
same,TGI,[22],> 100 µM
same,TGI,[23],> 100 µM
same,TGI,[24],> 100 µM
same,TGI,[25],75 µM
same,TGI,[26],> 100 µM
same,TGI,[27],> 100 µM
same,TGI,[28],> 100 µM
same,TGI,[29],25 µM
same,TGI,[30],81.4 µM
same,TGI,[31],> 100 µM
same,TGI,[32],> 100 µM
same,TGI,[33],> 100 µM
same,TGI,[34],> 100 µM
same,TGI,[35],98.7 µM
same,TGI,[36],> 100 µM
same,TGI,[56],> 100 µM
same,TGI,[38],> 100 µM
same,TGI,[39],> 100 µM
same,TGI,[57],> 100 µM
same,TGI,[40],> 100 µM
same,TGI,[41],72.6 µM
same,TGI,[42],> 100 µM
same,TGI,[44],> 100 µM
same,TGI,[45],> 100 µM
same,TGI,[46],> 100 µM
same,TGI,[47],> 100 µM
same,TGI,[58],> 100 µM
same,TGI,[48],> 100 µM
same,TGI,[49],> 100 µM
same,TGI,[50],> 100 µM
same,TGI,[51],> 100 µM
same,TGI,[52],> 100 µM
same,TGI,[59],7.87 µM
same,TGI,[53],> 100 µM
same,TGI,[54],> 100 µM
same,TGI,[55],> 100 µM
Nc1nc2c(c(=O)[nH]1)CN(CCCN1CCOCC1)CN2,TGI,[1],> 100 µM
same,TGI,[2],> 100 µM
same,TGI,[3],> 100 µM
same,TGI,[4],> 100 µM
same,TGI,[5],> 100 µM
same,TGI,[6],> 100 µM
same,TGI,[8],> 100 µM
same,TGI,[9],> 100 µM
same,TGI,[10],> 100 µM
same,TGI,[11],> 100 µM
same,TGI,[12],> 100 µM
same,TGI,[13],> 100 µM
same,TGI,[14],> 100 µM
same,TGI,[15],> 100 µM
same,TGI,[16],> 100 µM
same,TGI,[17],> 100 µM
same,TGI,[18],> 100 µM
same,TGI,[19],> 100 µM
same,TGI,[20],> 100 µM
same,TGI,[21],> 100 µM
same,TGI,[22],> 100 µM
same,TGI,[23],> 100 µM
same,TGI,[24],> 100 µM
same,TGI,[25],> 100 µM
same,TGI,[26],> 100 µM
same,TGI,[27],> 100 µM
same,TGI,[28],> 100 µM
same,TGI,[29],> 100 µM
same,TGI,[30],> 100 µM
same,TGI,[31],> 100 µM
same,TGI,[32],> 100 µM
same,TGI,[33],> 100 µM
same,TGI,[35],> 100 µM
same,TGI,[36],> 100 µM
same,TGI,[37],> 100 µM
same,TGI,[56],> 100 µM
same,TGI,[38],> 100 µM
same,TGI,[39],> 100 µM
same,TGI,[40],> 100 µM
same,TGI,[41],> 100 µM
same,TGI,[42],> 100 µM
same,TGI,[43],> 100 µM
same,TGI,[44],> 100 µM
same,TGI,[45],> 100 µM
same,TGI,[46],> 100 µM
same,TGI,[47],> 100 µM
same,TGI,[48],> 100 µM
same,TGI,[49],> 100 µM
same,TGI,[50],> 100 µM
same,TGI,[51],> 100 µM
same,TGI,[59],> 100 µM
same,TGI,[53],> 100 µM
same,TGI,[54],> 100 µM
same,TGI,[55],> 100 µM
